Measurements reported in PubChem BioAssay (NCI).
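Grown in 96-well plates, cells were treated for 48 hours with each compound at five concentrations. Insufficient inhibition: endpoint recorded as highest concentration tested. TGI marks complete inhibition of growth.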

Columns and labels:
Assay in all cases: NCI-60 cell line screen, 48 h
[1] = system: HOP-92 NSCLC
[2] = system: HCT-116 colon
[3] = system: UACC-62 melanoma
[4] = system: CAKI-1 renal
[5] = system: RPMI-8226 leukemia
[6] = system: U251 CNS
[7] = system: OVCAR-5 ovarian
[8] = system: NCI-H522 lung
[9] = system: LOX IMVI melanoma
[10] = system: OVCAR-4 ovarian

Q: COc1ccc(N2C(=O)C3c4[nH]c5ccc(C)cc5c4C4CCC(C)CC4C3C2=O)cc1 (centres undefined) was tested. Which TGI [1] did it give?
A: > 100 µM

Q: What about the TGI [2] of the same molecule?
A: > 100 µM

Q: What about the TGI [3] of the same molecule?
A: > 100 µM

Q: And the TGI [4]?
A: > 100 µM

Q: And the TGI [5]?
A: > 100 µM

Q: What about the TGI [6] of the same molecule?
A: > 100 µM

Q: And the TGI [7]?
A: > 100 µM

Q: And the TGI [8]?
A: > 100 µM

Q: And the TGI [9]?
A: > 100 µM

Q: COc1ccc(NC(=O)CC(=O)N2N=C(C)C(N=Nc3ccc(S(=O)(=O)c4ccc(N=NC5C(=O)N(C(=O)CC(=O)Nc6ccc(OC)cc6)N=C5C)cc4)cc3)C2=O)cc1 (centres undefined) was tested. Which TGI [1] did it give?
A: > 100 µM

Q: And the TGI [2]?
A: > 100 µM

Q: What about the TGI [3] of the same molecule?
A: > 100 µM

Q: What about the TGI [4] of the same molecule?
A: > 100 µM

Q: What about the TGI [5] of the same molecule?
A: > 100 µM

Q: And the TGI [6]?
A: > 100 µM

Q: What about the TGI [10] of the same molecule?
A: > 100 µM

Q: What about the TGI [8] of the same molecule?
A: > 100 µM

Q: What about the TGI [9] of the same molecule?
A: > 100 µM

Q: With CCCC(=O)NC1=C(NCC)C(=O)c2ccccc2C1=O as the molecule, how does the TGI [1] read?
A: > 100 µM

Q: What about the TGI [2] of the same molecule?
A: > 100 µM

Q: And the TGI [3]?
A: > 100 µM

Q: And the TGI [5]?
A: > 100 µM

Q: And the TGI [6]?
A: > 100 µM

Q: What about the TGI [10] of the same molecule?
A: > 100 µM

Q: And the TGI [7]?
A: > 100 µM

Q: What about the TGI [8] of the same molecule?
A: > 100 µM

Q: What does the source list for COc1cc2cc(C(=O)N3CC(CCl)c4ccc(O)cc43)[nH]c2c(OC)c1OC (centres undefined)?
A: TGI [3]: 0.00683 µM; TGI [4]: 0.0201 µM; TGI [7]: 0.765 µM; TGI [8]: 0.00168 µM; TGI [9]: 0.136 µM

Q: For [N-]=[N+]=Nc1c(-c2ccccc2)c(Cl)nc2ccccc12, which TGI [1] is on record?
A: > 100 µM

Q: And the TGI [2]?
A: > 100 µM

Q: And the TGI [4]?
A: > 100 µM

Q: And the TGI [5]?
A: > 100 µM

Q: What about the TGI [6] of the same molecule?
A: > 100 µM

Q: And the TGI [10]?
A: > 100 µM

Q: What about the TGI [7] of the same molecule?
A: > 100 µM

Q: And the TGI [8]?
A: > 100 µM

Q: What about the TGI [9] of the same molecule?
A: 43.6 µM

Q: C1=NCCNCCN=Cc2ccc(cc2)OCc2cccc(n2)COc2ccc1cc2 was tested. Which TGI [1] did it give?
A: > 100 µM

Q: What about the TGI [2] of the same molecule?
A: > 100 µM

Q: And the TGI [3]?
A: > 100 µM

Q: And the TGI [4]?
A: > 100 µM

Q: What about the TGI [5] of the same molecule?
A: > 100 µM

Q: And the TGI [6]?
A: > 100 µM

Q: And the TGI [10]?
A: > 100 µM

Q: And the TGI [7]?
A: > 100 µM

Q: And the TGI [8]?
A: > 100 µM
